# From ChEMBL document CHEMBL1201862, “PubChem BioAssay data set” (2004)
# Calls of active or inactive are those of the source.
# Tests used:
# [1] = viability of HCT116 lacking mutant beta-catenin – cell-based, human colon tumor, dose response (AID 1045); type: functional;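 note: HCT116 colon tumor cells with beta catenin knocked out; cells exposed to compound for 60 hours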
# Protein skinhead-1 = molecular target: T1, Protein skinhead-1 (Caenorhabditis elegans, UniProt P34707); type: functional
# T1 sequence (P34707 whole entry): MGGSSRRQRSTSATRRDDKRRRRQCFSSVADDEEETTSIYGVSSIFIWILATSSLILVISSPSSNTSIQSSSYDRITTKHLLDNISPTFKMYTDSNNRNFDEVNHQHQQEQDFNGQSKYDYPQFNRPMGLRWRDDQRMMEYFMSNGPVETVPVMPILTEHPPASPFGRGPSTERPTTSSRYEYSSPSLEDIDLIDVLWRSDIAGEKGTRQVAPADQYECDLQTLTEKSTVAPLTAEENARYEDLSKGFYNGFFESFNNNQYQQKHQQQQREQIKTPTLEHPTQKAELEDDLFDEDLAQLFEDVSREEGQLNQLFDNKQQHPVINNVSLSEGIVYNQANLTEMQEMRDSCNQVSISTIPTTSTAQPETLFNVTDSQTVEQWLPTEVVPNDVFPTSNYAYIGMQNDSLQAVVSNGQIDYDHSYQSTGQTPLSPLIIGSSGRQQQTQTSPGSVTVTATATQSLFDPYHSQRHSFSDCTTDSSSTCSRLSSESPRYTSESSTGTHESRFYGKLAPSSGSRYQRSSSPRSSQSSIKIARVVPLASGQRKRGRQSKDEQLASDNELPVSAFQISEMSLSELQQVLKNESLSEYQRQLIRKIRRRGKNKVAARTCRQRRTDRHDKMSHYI
# [2] = viability of PTEN-deleted HCT116 cells – cell-based, HCT116 PTEN knockout, dose response (AID 1047); type: functional;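 note: HCT116 colon tumor cells with PTEN knocked out; cells exposed to compound for 60 hours before readout; potency for loss of cell viability measured by luminescence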
# [3] = HIV-1 AD8 envelope cell-cell fusion blockers – cherry-pick, dose response (AID 652062); type: functional, cell-based;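 note: luciferase signal from cell-cell fusion driven by HIV-1 clade B AD8 Env; potency is for inhibitors of fusion seen as a drop in luminescence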
# [4] = blockers of HIV-1 envelope-mediated cell-cell fusion – cherry-pick, dose response (AID 652057); type: functional, cell-based
# Fatty acid synthase [5] = molecular target: T2, Fatty acid synthase (Homo sapiens, UniProt P49327); assay: inhibition of human FAS-TE enzyme activity – biochemical, endpoint fluorescence intensity, uHTS hits, dose response (AID 624327); type: functional;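 note: fluorescence from hydrolysis of an O-methyl fluorescein acyl ester substrate by the enzyme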
# Fatty acid synthase [6] = molecular target: T2, Fatty acid synthase; assay: inhibition of human FAS-TE enzyme activity – biochemical, kinetic fluorescence intensity, dose response (AID 624326); type: functional;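 note: rate of fluorescence rise from hydrolysis of a fluorogenic O-methyl fluorescein ester substrate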
# [7] = intracellular Trypanosoma cruzi inhibitors in host cells – cell-based, plate reader, cherry-pick samples, set 3, dose response (AID 651818); type: functional;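 note: compounds incubated with infected cells for about four days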
# [8] = molecular target: Voltage-dependent T-type calcium channel subunit alpha-1H (Homo sapiens, UniProt O95180); type: functional;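 note: channel activity triggered by adding a high calcium stimulation buffer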
# [9] = molecular target: T3, Polyadenylate-binding protein 1 (Homo sapiens, UniProt P11940); assay: MLLE binding blockers, Cy5 peptide tracer – biochemical, fluorescence polarization, Cy5-PAM2 peptide, secondary, miRNA deadenylation inhibitor project, dose response (AID 602260); type: functional; conditions: read-out: IC50_Mean
# [10] = molecular target: T3, Polyadenylate-binding protein 1; assay: MLLE domain peptide-binding blockers, IC50 – biochemical, fluorescence polarization, FITC-PAM2 peptide, dose response (AID 602259); type: functional; conditions: read-out: IC50_Mean
# H9c2 = assay: cells; type: functional, cell-based; conditions: Rattus norvegicus, H9c2, Myocardium;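 note: confirmatory concentration-response retest of ultra-high-throughput screening hits for modulation of myocardial damage; cell death induced by hydrogen peroxide oxidative stress; compound pretreatment for 60 min then peroxide exposure for 2 h; potency is for protecting the cells against peroxide damage rather than for killing them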
# [11] = reduction of Shn3 3'UTR-driven luciferase in osteoblasts – cell-based, Clone20 osteoblasts, firefly luciferase, cherry-picked, dose response (AID 624132); type: functional;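 note: firefly luciferase luminescence from reporter carrying the Shn3 3'UTR in osteoblasts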
# [12] = non-specific 3'UTR reporter inhibition in Clone20-Shn3RL – cell-based, Renilla luciferase, cherry-picked, counter-screen for Shn3 inhibitor project, dose response (AID 624133); type: functional
# [13] = loss of viability in HepG2 cells – cell-based, CellTiter-Glo, cherry-picked, cytotoxicity control for Shn3 inhibitor project, dose response (AID 624134); type: functional
# [14] = blockers of HIV-1 ZM109 envelope-driven cell-cell fusion – HeLa effector, CEM target cells, luciferase, cherry-pick, dose response (AID 652058); type: functional, cell-based;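 note: luciferase signal from HIV-1 Env mediated cell-cell fusion of effector and target cells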
# [15] = molecular target: FAD-linked sulfhydryl oxidase ALR (Homo sapiens, UniProt P55789); assay: ALR-catalysed DTT oxidation blockers – biochemical, H2O2 detection, luminescence, cherry-pick, dose response (AID 493248)
# Large T antigen = Large T antigen (Simian virus 40, UniProt P03070); type: functional, Betapolyomavirus macacae;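 note: Confirmatory-stage PubChem screen for compounds that inhibit SV40 T antigen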
# [16] = microbe, parasite or virus in culture; type: functional; conditions: Mycobacterium tuberculosis
# Cytochrome P450 3A4 = Cytochrome P450 3A4 (Homo sapiens, UniProt P08684);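 note: CYP3A4 tested as one member of a cytochrome P450 panel screen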
# Cytochrome P450 1A2 = molecular target: T4, Cytochrome P450 1A2 (Homo sapiens, UniProt P05177);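 note: PubChem cytochrome P450 panel assay, CYP1A2 panel member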
# T4 sequence (P05177 whole entry): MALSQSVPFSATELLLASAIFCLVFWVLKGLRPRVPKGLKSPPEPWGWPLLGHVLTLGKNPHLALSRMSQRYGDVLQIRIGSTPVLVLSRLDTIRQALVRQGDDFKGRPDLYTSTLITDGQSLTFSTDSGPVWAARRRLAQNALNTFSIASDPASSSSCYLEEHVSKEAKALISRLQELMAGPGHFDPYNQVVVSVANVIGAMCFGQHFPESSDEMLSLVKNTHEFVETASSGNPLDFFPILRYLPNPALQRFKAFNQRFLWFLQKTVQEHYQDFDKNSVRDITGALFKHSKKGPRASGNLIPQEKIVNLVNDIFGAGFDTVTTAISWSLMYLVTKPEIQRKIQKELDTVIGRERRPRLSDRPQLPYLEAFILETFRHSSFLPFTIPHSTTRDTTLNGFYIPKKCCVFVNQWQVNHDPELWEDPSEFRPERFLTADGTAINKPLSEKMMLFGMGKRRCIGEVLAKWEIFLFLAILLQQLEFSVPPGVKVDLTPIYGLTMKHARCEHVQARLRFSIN
# [17] = Trypanosoma cruzi growth suppression in host cells – NIH3T3 host cells, beta-gal luminescence, confirmation (AID 2044); type: functional, cell-based;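 note: intracellular parasites grown in NIH/3T3 mouse fibroblasts as host cells; luminescent beta-galactosidase reporter signal from transgenic T. cruzi replicating inside host cells; inhibitors lower the luminescence signal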
# [18] = NIH3T3 cell viability loss – ATP luminescence, mouse fibroblasts, counter-screen, dose response (AID 2010); type: functional, cell-based;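 note: cells exposed to compound for about 90 hours before reading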
# [19] = Luminescence Cell-Based Dose Retest to Confirm Inhibitors of Cancer Stem Cells. [Related pubchem assays (depositor defined):AID2717, AID2721]; type: functional; conditions: Homo sapiens
# Sequence of Voltage-dependent T-type calcium channel subunit alpha-1H (O95180 whole entry): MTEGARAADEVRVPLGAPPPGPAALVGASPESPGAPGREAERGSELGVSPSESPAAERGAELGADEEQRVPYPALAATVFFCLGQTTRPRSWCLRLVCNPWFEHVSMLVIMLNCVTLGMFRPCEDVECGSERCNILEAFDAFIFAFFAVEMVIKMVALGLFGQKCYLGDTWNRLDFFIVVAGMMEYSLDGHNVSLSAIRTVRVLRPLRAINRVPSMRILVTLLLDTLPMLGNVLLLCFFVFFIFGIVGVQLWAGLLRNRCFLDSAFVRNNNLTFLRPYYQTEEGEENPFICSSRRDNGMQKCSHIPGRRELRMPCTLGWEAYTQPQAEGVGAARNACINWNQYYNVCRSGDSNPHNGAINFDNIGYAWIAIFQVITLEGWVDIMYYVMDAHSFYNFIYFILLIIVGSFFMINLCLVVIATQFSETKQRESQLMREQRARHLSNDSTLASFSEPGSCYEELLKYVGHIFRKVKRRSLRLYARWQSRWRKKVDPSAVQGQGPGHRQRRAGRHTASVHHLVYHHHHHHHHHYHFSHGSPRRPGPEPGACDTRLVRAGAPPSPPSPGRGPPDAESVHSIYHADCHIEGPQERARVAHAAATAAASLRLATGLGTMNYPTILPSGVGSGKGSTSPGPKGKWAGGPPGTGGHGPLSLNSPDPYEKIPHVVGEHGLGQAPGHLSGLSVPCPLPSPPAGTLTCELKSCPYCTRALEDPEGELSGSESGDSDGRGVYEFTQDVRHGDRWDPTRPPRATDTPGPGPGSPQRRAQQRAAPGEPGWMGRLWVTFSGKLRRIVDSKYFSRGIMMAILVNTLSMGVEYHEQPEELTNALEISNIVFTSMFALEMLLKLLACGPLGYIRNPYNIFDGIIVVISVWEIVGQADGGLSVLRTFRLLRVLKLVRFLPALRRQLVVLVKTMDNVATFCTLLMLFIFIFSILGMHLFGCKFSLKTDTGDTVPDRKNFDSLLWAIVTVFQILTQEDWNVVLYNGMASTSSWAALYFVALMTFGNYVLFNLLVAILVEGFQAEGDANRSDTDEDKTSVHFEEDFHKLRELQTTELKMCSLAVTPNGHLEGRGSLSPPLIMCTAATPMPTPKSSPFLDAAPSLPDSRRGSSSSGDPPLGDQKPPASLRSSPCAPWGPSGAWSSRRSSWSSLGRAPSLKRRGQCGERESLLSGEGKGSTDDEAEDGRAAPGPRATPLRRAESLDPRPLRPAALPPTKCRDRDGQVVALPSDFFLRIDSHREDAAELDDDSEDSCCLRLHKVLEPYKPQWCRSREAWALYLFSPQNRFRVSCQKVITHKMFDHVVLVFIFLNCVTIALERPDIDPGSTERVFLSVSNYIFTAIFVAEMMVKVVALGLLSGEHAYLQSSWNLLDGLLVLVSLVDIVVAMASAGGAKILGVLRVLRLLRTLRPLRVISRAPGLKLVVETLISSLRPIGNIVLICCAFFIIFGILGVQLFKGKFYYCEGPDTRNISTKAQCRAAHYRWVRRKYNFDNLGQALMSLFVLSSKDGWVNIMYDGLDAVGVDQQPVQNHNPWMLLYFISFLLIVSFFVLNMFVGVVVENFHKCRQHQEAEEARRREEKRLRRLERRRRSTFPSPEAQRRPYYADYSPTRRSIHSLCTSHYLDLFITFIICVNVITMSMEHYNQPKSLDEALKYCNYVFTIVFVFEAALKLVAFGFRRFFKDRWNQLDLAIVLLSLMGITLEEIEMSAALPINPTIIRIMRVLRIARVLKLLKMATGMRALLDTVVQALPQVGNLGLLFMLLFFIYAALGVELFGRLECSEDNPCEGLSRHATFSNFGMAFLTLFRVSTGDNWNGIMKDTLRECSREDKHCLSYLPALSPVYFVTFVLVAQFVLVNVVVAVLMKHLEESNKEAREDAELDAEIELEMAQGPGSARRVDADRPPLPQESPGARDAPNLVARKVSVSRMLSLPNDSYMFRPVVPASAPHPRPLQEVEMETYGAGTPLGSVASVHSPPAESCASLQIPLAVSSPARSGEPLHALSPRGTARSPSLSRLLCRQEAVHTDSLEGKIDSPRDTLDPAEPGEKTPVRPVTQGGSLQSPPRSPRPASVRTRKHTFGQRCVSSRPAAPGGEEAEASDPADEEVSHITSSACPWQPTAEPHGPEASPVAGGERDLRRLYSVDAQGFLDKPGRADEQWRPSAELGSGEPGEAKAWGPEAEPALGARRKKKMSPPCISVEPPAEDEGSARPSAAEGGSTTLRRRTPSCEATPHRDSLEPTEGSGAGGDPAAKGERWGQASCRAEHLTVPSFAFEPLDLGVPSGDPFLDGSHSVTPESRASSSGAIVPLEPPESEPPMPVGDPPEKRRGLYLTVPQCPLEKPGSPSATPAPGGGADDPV
# Sequence of Large T antigen (P03070 whole entry): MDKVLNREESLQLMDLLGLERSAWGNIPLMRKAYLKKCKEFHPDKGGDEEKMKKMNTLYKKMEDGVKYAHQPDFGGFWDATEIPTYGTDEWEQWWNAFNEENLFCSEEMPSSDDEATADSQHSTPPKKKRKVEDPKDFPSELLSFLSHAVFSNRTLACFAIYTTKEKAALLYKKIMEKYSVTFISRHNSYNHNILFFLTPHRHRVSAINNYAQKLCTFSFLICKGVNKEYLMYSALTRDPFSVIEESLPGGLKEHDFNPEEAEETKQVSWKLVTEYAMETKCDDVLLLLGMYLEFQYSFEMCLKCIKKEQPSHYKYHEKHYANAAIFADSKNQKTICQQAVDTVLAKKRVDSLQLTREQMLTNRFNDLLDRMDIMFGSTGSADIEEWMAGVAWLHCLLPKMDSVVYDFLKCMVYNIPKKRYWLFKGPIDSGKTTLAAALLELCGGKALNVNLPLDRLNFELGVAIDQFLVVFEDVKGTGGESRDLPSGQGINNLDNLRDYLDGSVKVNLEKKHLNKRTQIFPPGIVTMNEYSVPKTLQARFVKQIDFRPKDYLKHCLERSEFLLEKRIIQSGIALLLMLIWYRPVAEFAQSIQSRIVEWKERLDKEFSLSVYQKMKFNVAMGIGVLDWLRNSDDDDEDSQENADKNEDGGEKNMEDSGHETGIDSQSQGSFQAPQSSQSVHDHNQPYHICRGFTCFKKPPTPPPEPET
# T3 sequence (P11940 whole entry, the tested form may be a part): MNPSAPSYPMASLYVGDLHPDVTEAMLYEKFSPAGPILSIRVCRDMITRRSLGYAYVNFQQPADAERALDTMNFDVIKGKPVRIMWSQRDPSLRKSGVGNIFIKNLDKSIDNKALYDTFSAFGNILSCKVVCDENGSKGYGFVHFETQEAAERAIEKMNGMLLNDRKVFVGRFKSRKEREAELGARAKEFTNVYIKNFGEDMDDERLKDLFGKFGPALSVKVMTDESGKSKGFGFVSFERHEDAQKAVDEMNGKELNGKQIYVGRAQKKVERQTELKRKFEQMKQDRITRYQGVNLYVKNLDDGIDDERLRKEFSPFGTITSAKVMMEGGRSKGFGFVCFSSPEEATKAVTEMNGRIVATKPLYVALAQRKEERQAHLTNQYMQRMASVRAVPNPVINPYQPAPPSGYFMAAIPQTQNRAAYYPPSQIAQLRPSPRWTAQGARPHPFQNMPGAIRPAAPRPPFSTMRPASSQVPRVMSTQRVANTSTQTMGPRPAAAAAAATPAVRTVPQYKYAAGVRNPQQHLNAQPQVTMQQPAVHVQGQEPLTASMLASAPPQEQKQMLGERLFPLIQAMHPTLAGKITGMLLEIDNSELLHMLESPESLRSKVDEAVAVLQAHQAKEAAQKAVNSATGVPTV
# Sequence of FAD-linked sulfhydryl oxidase ALR (P55789 whole entry): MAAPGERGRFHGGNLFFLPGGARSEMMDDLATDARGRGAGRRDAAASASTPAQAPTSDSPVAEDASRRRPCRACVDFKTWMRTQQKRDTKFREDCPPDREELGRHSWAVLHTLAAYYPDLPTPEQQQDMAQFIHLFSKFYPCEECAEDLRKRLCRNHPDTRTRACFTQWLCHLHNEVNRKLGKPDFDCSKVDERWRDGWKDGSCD
# Sequence of Cytochrome P450 3A4 (P08684 whole entry): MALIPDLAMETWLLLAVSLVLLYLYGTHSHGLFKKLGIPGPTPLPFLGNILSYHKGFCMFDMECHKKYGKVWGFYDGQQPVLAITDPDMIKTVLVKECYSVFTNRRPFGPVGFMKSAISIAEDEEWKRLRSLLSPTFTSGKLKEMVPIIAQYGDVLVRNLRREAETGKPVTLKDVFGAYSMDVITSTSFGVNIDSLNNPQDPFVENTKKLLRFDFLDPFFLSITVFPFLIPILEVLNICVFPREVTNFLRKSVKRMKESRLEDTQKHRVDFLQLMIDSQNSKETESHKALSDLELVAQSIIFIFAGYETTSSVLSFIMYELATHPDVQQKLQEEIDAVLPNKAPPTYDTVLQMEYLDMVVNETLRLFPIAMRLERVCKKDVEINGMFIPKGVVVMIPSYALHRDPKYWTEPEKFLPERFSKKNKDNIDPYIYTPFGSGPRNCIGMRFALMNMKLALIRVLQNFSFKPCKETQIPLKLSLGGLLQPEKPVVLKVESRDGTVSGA
smiles,measurement,setting,value
Cc1c(C(=O)NCCC2=CCCCC2)oc2ccc(S(=O)(=O)N3CCOCC3)cc12,EC50,[1],31.7 µM (active)
same,IC50,Protein skinhead-1,> 100 µM (inactive)
same,EC50,[2],19.2 µM (active)
CCN1CCN(c2cc(N3CCc4ccccc4C3)c(F)cc2[N+](=O)[O-])CC1,EC50,[1],12 µM (active)
same,EC50,[2],12.8 µM (active)
C[C@H](CO)N1C[C@H](C)[C@H](CN(C)S(=O)(=O)c2ccccc2)Oc2cc(-c3cccc(F)c3)ccc2S1(=O)=O,AC50,[3],10.7 µM (active)
same,AC50,[4],11 µM (active)
Cc1c(Cl)c([N+](=O)[O-])nn1CCCC(=O)Nc1cccc(Cl)c1,IC50,Fatty acid synthase [5],17.6 µM (active)
same,IC50,Fatty acid synthase [6],16.2 µM (active)
C[C@H]1CN([C@@H](C)CO)C(=O)Cc2cc(NC(=O)Cc3cn(C)c4ccccc34)ccc2O[C@@H]1CN(C)Cc1ccc(-c2ccccc2)cc1,AC50,[7],1.72 µM (active)
O=C(Nc1ccccc1-c1ccccc1)c1ccc(Br)o1,EC50,[8],7.47 µM (active)
CC(C)NC(C(=O)Nc1cc(Cl)cc(Cl)c1)c1ccccc1 (centres undefined),EC50,[8],3.62 µM (active)
O=C(Cn1c(=O)c2sccc2n(Cc2ccc([N+](=O)[O-])cc2)c1=O)NCCc1ccccc1,IC50,Fatty acid synthase [5],5.6 µM (active)
same,IC50,Fatty acid synthase [6],4.79 µM (active)
O=C(CN1CCN(C(=O)c2ccco2)CC1)Nc1ccc(Cl)c(C(F)(F)F)c1,EC50,[8],3.47 µM (active)
COc1ccccc1OCC(=O)NCCNC(=O)COc1ccccc1OC,IC50,[9],> 66 µM (inactive)
same,IC50,[10],> 66 µM (inactive)
CC(C)(C)OC(=O)CNC(=O)c1[nH]cnc1C(=O)NCC(=O)OCc1ccccc1,IC50,H9c2,> 79 µM (inactive)
CC1CCN(c2ccccc2NC(=S)NC(=O)c2ccc(-c3cccc([N+](=O)[O-])c3)o2)CC1,AC50,[11],3.07 µM (active)
same,IC50,[9],> 66 µM (inactive)
same,AC50,[12],3.38 µM (active)
same,AC50,[13],> 70 µM (inactive)
same,IC50,[10],> 66 µM (inactive)
COc1cccc(S(=O)(=O)N(C)C[C@H]2Oc3cc(C#CCC(C)C)ccc3S(=O)(=O)N([C@@H](C)CO)C[C@H]2C)c1,AC50,[14],10.6 µM (active)
same,AC50,[3],34.2 µM (active)
same,AC50,[4],25.1 µM (active)
Cc1cc(C)n(CCOC(=O)C2C(C=C(Cl)Cl)C2(C)C)n1 (centres undefined),EC50,[8],4.86 µM (active)
COc1ccc(N2CC(C(=O)NCc3nnc(O)c4ccccc34)CC2=O)cc1 (centres undefined),IC50,H9c2,12.9 µM (active)
C[C@@H]1CN([C@H](C)CO)C(=O)Cc2cc(NC(=O)Nc3ccccc3)ccc2O[C@@H]1CN(C)Cc1ccc(Oc2ccccc2)cc1,AC50,[7],3.76 µM (active)
COc1ccc(C2CC(c3cccs3)n3nc(N)nc3N2)cc1 (centres undefined),IC50,H9c2,> 79 µM (inactive)
O=[N+]([O-])c1ccc(S(=O)(=O)NN=Cc2ccc(Cl)c(Cl)c2)cc1,IC50,Fatty acid synthase [5],1.52 µM (active)
same,IC50,Fatty acid synthase [6],2.68 µM (active)
COc1ccc(NC(=O)N(CCCN(C)C)Cc2cc3cc(OC)ccc3nc2O)cc1,IC50,H9c2,> 79 µM (inactive)
C[C@H](CO)N1C[C@H](C)[C@@H](CN(C)Cc2ccc(C(F)(F)F)cc2)Oc2c(NC(=O)NC3CCCCC3)cccc2C1=O,AC50,[7],3.92 µM (active)
NC(=O)OCCSc1nnc(-c2cccc(C(N)=S)c2)o1,IC50,[9],> 66 µM (inactive)
same,IC50,[10],> 66 µM (inactive)
O=C1c2ccccc2C(Nc2cccc(C(F)(F)F)c2)N1Cc1ccco1 (centres undefined),EC50,[8],3.9 µM (active)
COC(=O)c1cccc(S(=O)(=O)N(Cc2ccco2)Cc2cc3cc(OC)ccc3nc2O)c1,IC50,H9c2,31.7 µM (inactive)
COc1ccc(S(=O)(=O)N2CCOC2CNC(=O)C(=O)NCCc2c[nH]c3ccccc23)cc1C (centres undefined),EC50,[8],3.31 µM (active)
COc1ccc(NC(=O)Nc2ccc3c(c2)CC(=O)N([C@@H](C)CO)C[C@H](C)[C@H](CN(C)S(=O)(=O)c2cccs2)O3)cc1,AC50,[14],13.2 µM (active)
same,AC50,[3],27.1 µM (active)
same,AC50,[4],12 µM (active)
COc1ccc(NC(=O)CSc2ccccc2)cn1,IC50,[9],33.4 µM (inactive)
same,IC50,[10],41.7 µM (inactive)
Oc1ccc(-c2cn3ccccc3n2)cc1,AC50,[15],0.097 µM (active)
same,IC50,Large T antigen,> 100 µM (active)
Cc1cc(C)c2c(N)c(C(=O)N/N=C/c3cccnc3)sc2n1,IC50,H9c2,> 79 µM (inactive)
COc1ccc(S(=O)(=O)N(C)C[C@H]2Oc3ccc(NS(=O)(=O)c4ccc(C)cc4)cc3CC(=O)N([C@H](C)CO)C[C@H]2C)cc1,AC50,[7],3.72 µM (active)
CCCCCCCCNC(=O)c1cccnc1SCC(=O)Nc1ccc(OC)cc1OC,EC50,[1],12.6 µM (active)
same,EC50,[2],12.3 µM (active)
Cc1ccc(Cl)cc1N1CCN(C(=O)C2CCC(=O)N(C3CCCCCC3)C2)CC1 (centres undefined),CC50,[16],> 40 µM (active)
same,AC50,[11],3.14 µM (active)
same,AC50,[12],3.41 µM (active)
same,AC50,[13],54.8 µM (active)
C[C@H]1CN([C@@H](C)CO)C(=O)Cc2cc(NC(=O)Nc3ccc4c(c3)OCO4)ccc2O[C@@H]1CN(C)Cc1ccc(C(=O)Nc2ccccc2N)cc1,AC50,[7],2.13 µM (active)
O=c1[nH]c2cc([N+](=O)[O-])c([N+](=O)[O-])cc2[nH]c1=O [DNQX],AC50,Cytochrome P450 3A4,25.1 µM (inconclusive)
same,IC50,Fatty acid synthase [5],8.63 µM (active)
same,AC50,Cytochrome P450 1A2,31.6 µM (inconclusive)
same,IC50,Fatty acid synthase [6],6.88 µM (active)
O=C(Cn1[nH]c(=O)c2ccccc2c1=O)NNC(=O)c1ccccc1,IC50,H9c2,18.6 µM (active)
CC(C)NC(=O)N(C)C[C@H]1Oc2c(NC(=O)Nc3ccc(C(F)(F)F)cc3)cccc2C(=O)N([C@H](C)CO)C[C@@H]1C,IC50,Fatty acid synthase [5],0.842 µM (active)
same,IC50,Fatty acid synthase [6],1.08 µM (active)
Cc1ccc(C)c(-c2nn(-c3cc(N4CCN(CCO)CC4)ccc3[N+](=O)[O-])c(=O)c3ccccc23)c1,CC50,[16],31.4 µM (active)
same,EC50,[17],2.23 µM (active)
same,EC50,[18],> 60 µM (not active)
O=C(CCc1ccc(O)c(O)c1)NN=C(S)Nc1ccc(Br)cc1Cl,IC50,Large T antigen,> 100 µM (active)
O=C(CCc1nc(O)c2ccccc2n1)N1CCCc2ccccc21,IC50,H9c2,> 79 µM (inactive)
O=C(COc1cccc(C(F)(F)F)c1)N1CCN(c2ccc(O)cc2)CC1,IC50,Large T antigen,9.68 µM (active)
same,AC50,[19],7.3 µM (active)
Cc1ccc([N+](=O)[O-])cc1N=C(S)NCCc1ccccc1,IC50,Fatty acid synthase [5],12.1 µM (active)
same,IC50,Fatty acid synthase [6],13.1 µM (active)
CCN(CC)S(=O)(=O)c1ccc(Cc2ncc(C(F)(F)F)cc2Cl)s1,EC50,[8],9.84 µM (active)
O=[N+]([O-])c1ccc(C2Oc3ccccc3C3CC(c4ccccc4)=NN32)s1 (centres undefined),CC50,[16],31.5 µM (active)
C[C@@H]1CCCCO[C@@H](CN(C)Cc2ccc(Cl)c(Cl)c2)[C@@H](C)CN([C@H](C)CO)C(=O)c2cc(NC(=O)Nc3ccccc3)ccc2O1,AC50,[7],3.82 µM (active)
